Assay results published in US8822174B1, “Sterilization indicator for oxidative sterilants” (priority 2013, dated 2014).
Several values for one entry are separate records, joined by “and”; a condition that tells them apart may be missing. Identical values can stand only once.

Test system: Geobacillus stearothermophilus spores
Assay type: cell-based
Method: Geobacillus stearothermophilus spores are resuspended in potassium ferricyanide concentrations ranging from 0.5 μg/ml to 200 mg/ml in samples having a spore concentration of 1E8 per ml (1×10^8 spores per milliliter). SCBI vials are inoculated with 20 μl (≈2 million spores) of each of the sample suspensions and air dried at least overnight. The SCBIs are then capped and run in a VHP BIER vessel for the times shown in Table 1 below using a 0.8 g injection of 59% hydrogen peroxide.
Geobacillus stearothermophilus spores are resuspended in Prussian blue concentrations ranging from 0.5 μg/ml to 123 mg/ml at a spore concentration of 1E8 per ml. SCBI vials are inoculated with 20 μl (≈2 million spores) of the appropriate suspension and air dried at least overnight. The SCBIs are then capped and run in a VHF) BIER vessel for the times listed below using a 0.8 g injection of 59% hydrogen peroxide.

`[C-]#N.[C-]#N.[C-]#N.[C-]#N.[C-]#N.[C-]#N.[C-]#N.[C-]#N.[C-]#N.[C-]#N.[C-]#N.[C-]#N.[C-]#N.[C-]#N.[C-]#N.[C-]#N.[C-]#N.[C-]#N.[Fe+2].[Fe+2].[Fe+2].[Fe+3].[Fe+3].[Fe+3].[Fe+3]` [Prussian Blue, Prussian blue] was tested, and the “Killed/Total Samples” value was 0/10 and 8/10 and 3/10 and 7/10* and 1/10* and 6/10* and 2/10* and 10/10 and the “grow out results compared with potassium ferricyanide (Table 1)” value was “comparable results”.
